Molecules are shown by their SMILES.

One test deals with TRPM8 (hTRPM8) (Homo sapiens, UniProt Q7Z2W7). Nature of the test: whole-cell patch clamp in transfected HEK293T cells (menthol-evoked currents). The test is classed as cell-based.
In another test the target is T1, human TRPV3 (hTRPV3) (Homo sapiens, UniProt Q8NET8).
T1 sequence (Q8NET8 1-790): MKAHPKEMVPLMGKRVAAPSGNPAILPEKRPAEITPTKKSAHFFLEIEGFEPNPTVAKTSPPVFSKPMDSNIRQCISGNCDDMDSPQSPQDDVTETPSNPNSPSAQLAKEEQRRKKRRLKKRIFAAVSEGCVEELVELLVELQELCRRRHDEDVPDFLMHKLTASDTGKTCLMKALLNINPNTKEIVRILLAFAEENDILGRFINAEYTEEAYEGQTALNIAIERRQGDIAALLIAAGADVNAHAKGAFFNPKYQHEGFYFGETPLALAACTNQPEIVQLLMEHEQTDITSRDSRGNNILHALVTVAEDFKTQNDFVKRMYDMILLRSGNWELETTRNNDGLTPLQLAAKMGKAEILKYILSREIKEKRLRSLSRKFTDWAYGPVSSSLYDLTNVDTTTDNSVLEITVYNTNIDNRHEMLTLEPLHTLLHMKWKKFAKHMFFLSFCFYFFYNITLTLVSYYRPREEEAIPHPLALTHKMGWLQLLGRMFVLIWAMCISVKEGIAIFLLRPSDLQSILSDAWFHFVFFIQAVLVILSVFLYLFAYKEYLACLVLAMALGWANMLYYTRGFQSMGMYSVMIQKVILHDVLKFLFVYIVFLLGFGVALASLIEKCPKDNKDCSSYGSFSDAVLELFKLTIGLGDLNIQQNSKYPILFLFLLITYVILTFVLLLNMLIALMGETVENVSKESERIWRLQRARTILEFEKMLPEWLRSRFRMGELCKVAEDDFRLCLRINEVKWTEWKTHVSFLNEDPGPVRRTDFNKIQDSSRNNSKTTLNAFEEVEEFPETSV
In words: whole-cell patch clamp and inside-out single-channel recording in transfected HEK293T cells (2-APB-evoked currents). The test is classed as cell-based. (In patch-clamp work, channel activity is measured electrically.)

Sequence of TRPM8 (hTRPM8) (Q7Z2W7 whole entry): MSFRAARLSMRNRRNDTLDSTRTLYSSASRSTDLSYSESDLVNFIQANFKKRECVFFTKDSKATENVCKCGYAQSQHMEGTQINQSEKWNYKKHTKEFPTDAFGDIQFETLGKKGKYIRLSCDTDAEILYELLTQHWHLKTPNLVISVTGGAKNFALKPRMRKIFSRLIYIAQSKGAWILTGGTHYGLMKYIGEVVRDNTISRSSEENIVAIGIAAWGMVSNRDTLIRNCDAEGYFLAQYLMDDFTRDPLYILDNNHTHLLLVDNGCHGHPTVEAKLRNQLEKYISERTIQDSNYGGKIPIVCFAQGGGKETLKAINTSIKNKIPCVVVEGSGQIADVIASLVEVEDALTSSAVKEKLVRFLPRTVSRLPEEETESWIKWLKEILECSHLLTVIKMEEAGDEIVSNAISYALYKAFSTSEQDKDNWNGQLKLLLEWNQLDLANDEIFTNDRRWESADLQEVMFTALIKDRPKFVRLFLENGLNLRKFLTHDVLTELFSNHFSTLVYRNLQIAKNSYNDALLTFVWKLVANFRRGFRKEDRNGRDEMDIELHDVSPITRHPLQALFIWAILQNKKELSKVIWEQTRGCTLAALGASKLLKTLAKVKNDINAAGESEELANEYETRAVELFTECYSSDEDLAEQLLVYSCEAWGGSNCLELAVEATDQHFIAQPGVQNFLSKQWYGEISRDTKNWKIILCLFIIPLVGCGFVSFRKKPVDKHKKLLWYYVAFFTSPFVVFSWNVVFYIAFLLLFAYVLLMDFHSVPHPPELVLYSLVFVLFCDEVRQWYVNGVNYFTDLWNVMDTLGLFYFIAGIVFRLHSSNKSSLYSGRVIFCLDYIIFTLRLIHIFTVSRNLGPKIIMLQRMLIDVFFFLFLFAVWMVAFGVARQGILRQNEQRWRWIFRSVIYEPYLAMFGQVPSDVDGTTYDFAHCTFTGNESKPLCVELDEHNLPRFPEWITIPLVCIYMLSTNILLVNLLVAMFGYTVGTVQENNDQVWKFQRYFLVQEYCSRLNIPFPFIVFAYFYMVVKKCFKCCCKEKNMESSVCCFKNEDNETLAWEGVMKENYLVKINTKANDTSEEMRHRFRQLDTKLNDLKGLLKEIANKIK

In general, IC50 refers to the concentration that gives 50% inhibition. Lower therefore signals inhibition by little substance. In the case of `CNCCC(Oc1ccc(C(F)(F)F)cc1)c1ccccc1` (centres unmarked) [FLX, Fluoxetine], the 50% inhibitory concentration (IC50) at TRPM8 (hTRPM8) amounted to 20 ± 3.3 µM; against human TRPV3 (hTRPV3), 10.2 ± 2.34 µM.
